Results taken from US8796268B2, “Heteroaryls and uses thereof” (Millennium Pharmaceuticals, Inc., priority 2010, dated 2014).

Experiments:
[1] = molecular target: T1, Human PI3K beta (Homo sapiens, UniProt P42338); assay: Human PI3K beta enzyme assay (HTRF); type: biochemical; settings: read-out: PI3 Kbeta IC50
T1 construct: His (N); host or cells: SF9 insect cells (baculovirus)
Text: (§1) The catalytic subunits of PI3Ks are cloned into either pDEST8(p110 alpha) or pDEST10(p110beta, p110delta, and p110gamma) as N-terminal His tagged fusion proteins using the Gateway system (Invitrogen, catalog#11804-010 for pDEST8 and 11806-015 for pDEST10). The sequences are verified before recombinant protein expression using the Baculovirus Expression System with Gateway® Technology. The accession numbers for the subunits are as follows: • p110 alpha (GB:U79143) • p110beta (GB: S67334) • p110delta (GB: U86453) • p110gamma (GB: X83368) • The regulatory subunits of PI3Ks are cloned into pDEST8 as un-tagged protein using the Gateway system (Catalog#11804-010). The sequences are verified before recombinant protein expression using the Baculovirus Expression System with Gateway® Technology. The accession numbers for the subunits are as following: • p85 alpha (GB: BC030815) • p101(GB: AB028925) • VPS34 (accession number GB:BC033004) is cloned into pDEST20—Thombin as N-terminal GST tagged fusion proteins using the Gateway system (Invitrogen, catalog#11804-013). The sequences are verified before recombinant protein expression using the Baculovirus Expression System with Gateway® Technology.
(§2) For expression of the p110 complexes, the p85 (MOI of 4) is co-infected with p110 alpha, beta, and delta respectively (1MOI) in SF9 cells and harvested at 60 hours post co-infection. P110 gamma was infected at 1 MOI and harvested at 60 hours post infection.
(§3) For purification, PI3Ks are purified by Ni-NTA Agarose (Qiagen #30250) followed by Mono Q 10/100 GL (Ge Healthcare #17-5167-01). VPS34 is purified by Glutathione Sepharose 4 Fast Flow (GE Healthcare #17-5132-03) followed by HiTrap Q (GE Healthcare #17-1153-01).
(§4) 0.5 uL compounds in DMSO are added to wells of a 384 well microtitre plate (Corning 3575). At room temperature: 10 ul PI3K reaction buffer (50 mM Hepes, 5 mM DTT, 150 mM NaCl, 10 mM beta-glycerophosphate, 10 mM MgCl2, 0.25 mM sodium cholate and 0.001% CHAPS, pH 7.00) containing ATP (25 uM, Promega) is added followed immediately by 10 ul PI3K reaction buffer containing di-C8 P1(4,5)P2 (3.5 uM, CellSignals) and PI3Kalpha (0.4875 nM, Millennium Protein Sciences Group) and the mixture is incubated with shaking at room temperature for 30 minutes. Then 5 ul PI3K stop mix (50 mM Hepes, 5 mM DTT, 150 mM NaCl, 0.01% Tween-20, 15 mM EDTA and 25 nM biotin-PI(3,4,5)P3 (Echelon) is added to quench the reaction followed immediately by addition of 5 ul HTRF detection mix (50 mM Hepes, 5 mM DTT, 150 mM NaCl, 0.01% Tween-20, 40 mM KF, 1.0 nM GST:GRP-1 PH domain (Millennium Protein Sciences Group), 15 nM Streptavidin-XL (CisBio) and 0.375 nM anti-GST Eu++ antibody (CisBio) at pH 7.00). The plates are then incubated for 1 hour at room temperature with shaking and then read on a BMG PheraStar Plus reader.
2) Human PI3K beta, delta and gamma isoforms are tested using the procedure described for PI3K alpha above but with the following changes: PI3K beta (5.25 nM), PI3K delta (0.75 nM) and PI3K gamma (5 nM). All isoforms supplied by Millennium Protein Science Group.
(§5) For the assay methods described above, test compound percent inhibition, at various concentrations, is calculated relative to control (DMSO and EDTA) treated samples. Compound concentration versus percent inhibition curves are fitted to generate IC50 values. One skilled in the art will appreciate that the values generated either as percentage inhibition at a single concentration or IC50 values are subject to experimental variation.

[2] = molecular target: T2, Human PI3K alpha (Homo sapiens, UniProt P42336); assay: Human PI3K alpha enzyme assay (HTRF); type: biochemical; settings: read-out: PI3Kalpha IC50
T2 construct: His (N); host or cells: SF9 insect cells (baculovirus)
Text: as §1, §2, §3
1) Human PI3K alpha enzyme assay method
as §4, §5

T2 sequence (P42336 whole entry): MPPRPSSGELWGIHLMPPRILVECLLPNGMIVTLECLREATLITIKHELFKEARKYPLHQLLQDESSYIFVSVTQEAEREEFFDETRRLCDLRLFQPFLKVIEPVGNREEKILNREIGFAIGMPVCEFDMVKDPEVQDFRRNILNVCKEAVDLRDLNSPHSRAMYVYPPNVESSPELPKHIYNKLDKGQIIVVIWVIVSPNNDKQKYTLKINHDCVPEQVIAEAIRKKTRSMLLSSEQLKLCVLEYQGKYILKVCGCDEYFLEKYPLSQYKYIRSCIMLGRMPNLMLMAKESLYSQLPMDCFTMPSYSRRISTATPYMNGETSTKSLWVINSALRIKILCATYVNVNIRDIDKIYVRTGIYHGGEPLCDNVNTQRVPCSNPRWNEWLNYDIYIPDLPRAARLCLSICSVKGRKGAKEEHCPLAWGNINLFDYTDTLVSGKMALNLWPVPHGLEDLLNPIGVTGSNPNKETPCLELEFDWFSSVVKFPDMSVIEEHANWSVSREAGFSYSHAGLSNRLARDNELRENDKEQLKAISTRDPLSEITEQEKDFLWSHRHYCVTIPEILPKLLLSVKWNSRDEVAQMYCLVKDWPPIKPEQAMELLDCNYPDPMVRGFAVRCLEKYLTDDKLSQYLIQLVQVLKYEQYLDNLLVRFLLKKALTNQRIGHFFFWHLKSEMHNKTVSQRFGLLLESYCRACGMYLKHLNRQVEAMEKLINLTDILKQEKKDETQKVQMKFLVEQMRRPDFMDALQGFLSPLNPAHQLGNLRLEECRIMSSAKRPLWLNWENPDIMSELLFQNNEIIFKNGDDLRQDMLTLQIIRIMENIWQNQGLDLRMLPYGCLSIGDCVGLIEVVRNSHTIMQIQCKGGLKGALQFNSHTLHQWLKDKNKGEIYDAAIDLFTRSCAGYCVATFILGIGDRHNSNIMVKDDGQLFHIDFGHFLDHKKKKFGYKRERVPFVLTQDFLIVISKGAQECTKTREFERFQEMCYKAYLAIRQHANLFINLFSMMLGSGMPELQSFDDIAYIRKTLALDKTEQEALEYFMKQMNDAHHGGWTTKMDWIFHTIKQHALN
T2 sequence (P27986 whole entry partner): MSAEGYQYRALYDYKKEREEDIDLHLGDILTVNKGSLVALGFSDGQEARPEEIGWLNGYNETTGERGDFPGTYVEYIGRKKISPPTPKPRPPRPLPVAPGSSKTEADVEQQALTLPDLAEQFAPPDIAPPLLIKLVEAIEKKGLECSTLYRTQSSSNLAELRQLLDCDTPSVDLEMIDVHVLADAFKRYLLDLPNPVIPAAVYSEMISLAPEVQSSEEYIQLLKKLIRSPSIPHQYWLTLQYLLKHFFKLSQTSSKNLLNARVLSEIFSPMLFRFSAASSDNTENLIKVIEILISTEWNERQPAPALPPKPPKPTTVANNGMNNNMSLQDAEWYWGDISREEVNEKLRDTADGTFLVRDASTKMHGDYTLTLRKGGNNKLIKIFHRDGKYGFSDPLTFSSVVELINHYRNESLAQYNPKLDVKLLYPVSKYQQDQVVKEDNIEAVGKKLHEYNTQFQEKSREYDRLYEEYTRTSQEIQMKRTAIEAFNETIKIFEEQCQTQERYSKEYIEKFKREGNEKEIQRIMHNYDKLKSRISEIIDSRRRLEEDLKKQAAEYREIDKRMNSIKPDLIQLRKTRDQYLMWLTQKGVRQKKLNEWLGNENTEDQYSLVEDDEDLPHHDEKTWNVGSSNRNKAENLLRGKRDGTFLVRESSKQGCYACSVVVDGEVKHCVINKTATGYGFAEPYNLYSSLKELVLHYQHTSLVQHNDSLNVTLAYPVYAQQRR
T1 sequence (P42338 whole entry): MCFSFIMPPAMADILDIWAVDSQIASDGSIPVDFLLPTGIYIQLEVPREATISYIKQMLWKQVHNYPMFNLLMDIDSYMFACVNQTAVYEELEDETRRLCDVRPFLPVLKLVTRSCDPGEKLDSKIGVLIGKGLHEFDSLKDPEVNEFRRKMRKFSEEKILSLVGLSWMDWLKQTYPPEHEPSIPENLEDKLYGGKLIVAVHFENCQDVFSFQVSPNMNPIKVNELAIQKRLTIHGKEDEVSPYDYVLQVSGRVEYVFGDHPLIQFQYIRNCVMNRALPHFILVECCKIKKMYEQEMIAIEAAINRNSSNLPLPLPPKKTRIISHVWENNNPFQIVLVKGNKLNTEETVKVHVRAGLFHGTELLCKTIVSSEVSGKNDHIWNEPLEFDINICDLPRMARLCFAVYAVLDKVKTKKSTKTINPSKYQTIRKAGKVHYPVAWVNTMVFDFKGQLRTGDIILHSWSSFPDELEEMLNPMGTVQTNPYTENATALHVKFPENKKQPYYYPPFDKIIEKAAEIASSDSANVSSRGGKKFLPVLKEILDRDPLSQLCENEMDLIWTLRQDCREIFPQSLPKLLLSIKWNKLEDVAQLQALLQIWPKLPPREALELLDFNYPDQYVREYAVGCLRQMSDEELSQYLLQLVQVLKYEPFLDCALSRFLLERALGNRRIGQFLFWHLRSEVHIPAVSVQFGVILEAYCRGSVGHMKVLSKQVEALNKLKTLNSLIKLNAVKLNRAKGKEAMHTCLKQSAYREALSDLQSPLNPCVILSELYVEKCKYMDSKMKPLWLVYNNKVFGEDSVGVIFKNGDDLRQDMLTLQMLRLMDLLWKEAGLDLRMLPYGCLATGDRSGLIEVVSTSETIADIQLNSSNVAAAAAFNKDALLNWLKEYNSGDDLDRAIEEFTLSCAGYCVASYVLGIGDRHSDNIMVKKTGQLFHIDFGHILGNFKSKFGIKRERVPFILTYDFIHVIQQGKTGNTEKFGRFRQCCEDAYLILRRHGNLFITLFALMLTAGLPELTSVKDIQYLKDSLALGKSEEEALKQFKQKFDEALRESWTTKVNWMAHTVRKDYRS
T1 sequence (P27986 whole entry partner): as the sequence (P27986 whole entry partner) above

| Compound | IC50 [1] [nM] | IC50 [2] [nM] |
| --- | --- | --- |
| O[C@H](c1ccc(Cl)cc1)c1nc(-c2ccncc2)sc1-c1nnc[nH]1 (single isomer, unassigned) [Compound 19, (4-chlorophenyl)[2-pyridin-4-yl-5-(1H-1,2,4-triazol-3-yl)-1,3-thiazol-4-yl]methanol] | < 100 | > 1000 |
| O[C@@H](c1ccc(Cl)cc1)c1cc(-c2ccnc(Cl)c2)sc1-c1nnc[nH]1 (single isomer, unassigned) [Compound 40] | 100 to 1000 | 100 to 1000 |
| Cc1cc(-c2cc([C@@H](O)c3ccc(Cl)cc3)c(-c3nnc[nH]3)s2)ccn1 (single isomer, unassigned) [Compound 69] | 100 to 1000 | > 1000 |
| O[C@@H](c1ccc(Cl)cc1)c1nc(-c2ccncc2)sc1-c1nnc[nH]1 (single isomer, unassigned) [Compound 70, (4-chlorophenyl)[2-pyridin-4-yl-5-(1H-1,2,4-triazol-3-yl)-1,3-thiazol-4-yl]methanol] | 100 to 1000 | > 1000 |
| Cc1nn2ccc(CN)cc2c1-c1nc(Cc2ccc(Cl)cc2)c(-c2nnc[nH]2)s1 [Compound 1, 1-{3-[4-(4-chlorobenzyl)-5-(4H-1,2,4-triazol-3-yl)-1,3-thiazol-2-yl]-2-methylpyrazolo[1,5-a]pyridin-5-yl}methanamine] | 100 to 1000 | 100 to 1000 |
| CC(=O)Nc1cc(-c2nc(Cc3ccccc3)c(-c3ncc[nH]3)s2)ccn1 [Compound 2, N-{4-[4-benzyl-5-(1H-imidazol-2-yl)-1,3-thiazol-2-yl]pyridin-2-yl}acetamide] | > 1000 | > 1000 |
| N#Cc1cc(-c2cc([C@H](O)c3ccc(Cl)cc3)c(-c3nnc[nH]3)s2)ccn1 [Compound 3] | < 100 | > 1000 |
| Cc1nn2ccccc2c1-c1nc(Cc2ccc(Cl)cc2)c(-c2nnc[nH]2)s1 [Compound 4, 3-[4-(4-chlorobenzyl)-5-(4H-1,2,4-triazol-3-yl)-1,3-thiazol-2-yl]-2-methylpyrazolo[1,5-a]pyridine] | 100 to 1000 | 100 to 1000 |
| Clc1ccc(Cc2cc(-c3ccncc3)sc2-c2nnc[nH]2)cc1 [Compound 5, 4-[4-(4-chlorobenzyl)-5-(4H-1,2,4-triazol-3-yl)-2-thienyl]pyridine] | < 100 | > 1000 |
| COC(c1ccc(Cl)cc1)c1cc(-c2ccncc2)sc1-c1nnc[nH]1 (stereo not drawn) [Compound 6, 4-[4-[(4-chlorophenyl)(methoxy)methyl]-5-(4H-1,2,4-triazol-3-yl)-2-thienyl]pyridine] | 100 to 1000 | > 1000 |
| Clc1ccc(Cc2nc(-c3ccncc3)sc2-c2nnc[nH]2)cc1Cl [Compound 7] | < 100 | > 1000 |
| OCc1cc(-c2cc(C(O)c3ccc(Cl)cc3)c(-c3nnc[nH]3)s2)ccn1 (stereo not drawn) [Compound 8] | 100 to 1000 | > 1000 |
| CN(C)C(c1ccc(Cl)cc1)c1cc(-c2ccncc2)sc1-c1nnc[nH]1 (stereo not drawn) [Compound 9, 1-(4-chlorophenyl)-N,N-dimethyl-1-[5-pyridin-4-yl-2-(4H-1,2,4-triazol-3-yl)-3-thienyl]methanamine] | < 100 | > 1000 |
| OC(c1ccc(Cl)cc1)c1cc(-c2ccnc3[nH]ccc23)sc1-c1nnc[nH]1 (stereo not drawn) [Compound 10] | 100 to 1000 | 100 to 1000 |
| Cc1cc(-c2cc(C(O)c3ccc(Cl)cc3)c(-c3nnc[nH]3)s2)ccn1 (stereo not drawn) [Compound 11] | < 100 | > 1000 |
| N#Cc1c(-c2ccnc(N)c2)sc(-c2nnc[nH]2)c1Cc1ccc(Cl)cc1 [Compound 12, 2-(2-aminopyridin-4-yl)-4-(4-chlorobenzyl)-5-(4H-1,2,4-triazol-3-yl)thiophene-3-carbonitrile] | 100 to 1000 | > 1000 |
| OC(c1ccc(Cl)cc1)c1cc(-c2ccnc3ccsc23)sc1-c1nnc[nH]1 (stereo not drawn) [Compound 13] | < 100 | < 100 |
| OC(c1ccc(Cl)cc1)c1cc(-c2ccnc(Cl)c2)sc1-c1nnc[nH]1 (stereo not drawn) [Compound 14] | < 100 | 100 to 1000 |
